Test results: US20260053764A1, “COMPOSITION FOR PREVENTING DETERIORATION IN COGNITIVE FUNCTION AND/OR IMPROVING COGNITIVE FUNCTION” (PHARMA FOODS INTERNATIONAL CO., LTD., priority 2020, published 2026)

Key:
[1] = test system: IGF-1 (insulin-like growth factor-1); assay: Blood test, IGF-1 concentration in blood; format: in vivo, human; conditions: 200 mg ingestion test
Excerpt: While there are still many unclear points regarding the biochemical mechanism regarding reduction in cognitive function, the IGF-1 (insulin-like growth factor-1) level in blood is known to be reduced by aging. […] In one embodiment of the present disclosure, the composition of the present disclosure can be a composition for suppressing reduction in cognitive function and/or improving the cognitive function through elevation of the IGF-1 concentration in blood.
Among the 120 subjects in Example 1, a total of six blood tests were carried out to the total of 60 subjects who participated in test, wherein blood tests were carried out upon screening, before starting test food ingestion, after four weeks of ingestion, after eight weeks of ingestion, after twelve weeks of ingestion and four weeks after ending ingestion, as shown with ● in the test schedule in Table 1.

[2] = test system: cognitive function of a human; assay: RBANS neuropsychological test in clinical tests A and B; format: in vivo; design: Attention / Delayed memory / Immediate memory / Language: scale not given here; conditions: for Attention / Immediate memory / Language / Visual spatial configuration / Delayed memory: mean ± SD; for scores regarding delayed playback, GABA group compared to the placebo group / scores regarding visual space, GABA group compared to the placebo group: after twelve weeks of ingestion
Procedure: In addition, the RBANS neuropsychological test (RBANS: Repeatable Battery for the Assessment of Neuropsychological Status) is one of the neuropsychological examinations that have been standardized the a in United States, which is neuropsychological test exercise (examination battery) that takes a short time (about 30 minutes) and can be repeatedly assessed. The RBANS neuropsychological test can assess five cognitive domains, which are immediate memory, visual spatial/constructional, language, attention and delayed memory.
Two types of placebo-controlled randomized double-blind two-group parallel comparison tests were carried out as clinical tests. […] Specifically, capsules comprising 100 mg of dextrin per capsule were used as the placebo food.
The screening examination was carried out to select 60 subjects for each test (a total of 120 subjects). MMSE (Mini Mental State Examination) is an examination for assessing the degree of progression of dementia or the like based on the score thereof with 30 as the perfect score, wherein dementia is suspected with a score of 23 or lower.
The total of 120 subjects were randomly divided into test A active group, test A placebo group, test B active group and test B placebo group with 30 subjects in each group. Each subject of the test A active group ingested two capsules of the active food, each subject of the test A placebo group ingested two capsules of the placebo food, each subject of the test B active group ingested one capsule of the active food and each subject of the test B placebo group ingested one capsule of the placebo food.
Each subject followed the schedule shown in the table below and ingested one or two of the assigned capsules together with water for 12 weeks from two weeks after the initial screening examination. All subjects had no particular instruction during the ingestion period and freely took their meals.
As shown with ● in the test schedule in Table 1, Cognitrax was carried out a total of five times, which are upon screening, before starting test food sample ingestion, after four weeks of ingestion, after eight weeks of ingestion and after twelve weeks of ingestion, and the RBANS neuropsychological test was carried out a total of two times, which are before staring test food ingestion and after twelve weeks of ingestion.

[3] = test A 200 mg, before ingestion
[4] = test B 100 mg, before ingestion

## NCCCC(=O)O [GABA, γ-aminobutyric acid]
[1]; blood, before ingestion, mean ± SD
  IGF-1: 71.0 ± 21.5 ng/mL
[1]; vs. before ingestion
  IGF-1 in the group that ingested GABA: tendency of increase
[2]; test A 200 mg, 12 w
  Delayed memory: difference between active food and placebo food groups: 9.4
  Immediate memory: difference between active food and placebo food groups: 13.1
  Language: difference between active food and placebo food groups: 5.0
  RBANS domain (row head blank): difference between active food and placebo food groups: 5.6
  Visual space: difference between active food and placebo food groups: 3.1
  Attention: 53.0 ± 15.2
  Immediate memory: 47.6 ± 14.7
  Language: 54.2 ± 9.5
  Visual spatial configuration: 48.8 ± 13.0
[2]; [3]
  Delayed memory: difference between active food and placebo food groups: −1.6
  Immediate memory: difference between active food and placebo food groups: 0.8
  Language: difference between active food and placebo food groups: 2.3
  RBANS domain (row head blank): difference between active food and placebo food groups: −0.8
  Visual space: difference between active food and placebo food groups: −0.2
  Attention: 44.5 ± 17.6
  Delayed memory: 39.8 ± 17.1
  Immediate memory: 42.3 ± 16.6
  Language: 48.4 ± 8.5
  Visual spatial configuration: 47.7 ± 14.7
[2]; test A
  scores regarding delayed playback, GABA group compared to the placebo group: significant improvement
  scores regarding visual space, GABA group compared to the placebo group: significant improvement
[2]; test B 100 mg, 12 w
  Attention: difference between active food and placebo food groups: −2.2
  Delayed memory: difference between active food and placebo food groups: 11.9
  Immediate memory: difference between active food and placebo food groups: 3.5
  Language: difference between active food and placebo food groups: 3.9
  Visual space: difference between active food and placebo food groups: 9.9
  Delayed memory: 46.9 ± 11.3
  Immediate memory: 43.9 ± 14.4
  Language: 51.6 ± 8.7
  Visual spatial configuration: 48.2 ± 10.3
[2]; [4]
  Attention: difference between active food and placebo food groups: −5.5
  Delayed memory: difference between active food and placebo food groups: 1.2
  Immediate memory: difference between active food and placebo food groups: −0.9
  Language: difference between active food and placebo food groups: −2.1
  Visual space: difference between active food and placebo food groups: 1.0
  Attention: 43.4 ± 11.6
  Delayed memory: 41.7 ± 15.3
  Immediate memory: 42.8 ± 13.4
  Language: 47.8 ± 11.6
  Visual spatial configuration: 48.3 ± 8.8
[2]; test B
  scores regarding delayed playback, GABA group compared to the placebo group: significant improvement
  scores regarding visual space, GABA group compared to the placebo group: significant improvement
